Reference: patent publication US11584744B2 (UNIVERSITY OF WASHINGTON, priority 2017, dated 2023)
Converted amounts (≈) assume the structure as drawn. Read-outs that look alike come from different tables or passages of the source.

Columns and labels:
[1] = Cytotoxicity testing on mammalian cells (AlamarBlue, 48 hours); type: cell-based; conditions: human
Method: Cytotoxicity testing on mammalian cells: Compounds were assayed for cytotoxicity against CRL-8155 (human lymphoblasts) and HepG2 cells (human hepatocellular carcinoma). Cells were exposed to serial dilutions of compounds for 48 hours and toxicity was quantified using AlamarBlue (ThermoFisher Scientific, Waltham, Mass.). Assays were performed in quadruplicate and EC50 values were calculated with non-linear regression methods using software by the Collaborative Drug Database (Burlingame, Calif. www.collaborativedrug.com)

[2] = system: S. aureus MSSA (ATCC 29213); assay: MIC susceptibility testing; type: cell-based, Staphylococcus aureus; conditions: Staphylococcus aureus
[3] = system: E. faecium VRE (ATCC 51559); assay: MIC susceptibility testing; type: cell-based, Enterococcus faecium; conditions: Enterococcus faecium
How it was run: (§1)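 CLSI broth microdilution in triplicate, 5×10^5 CFU/mL final, ≤0.5% DMSO; MHB for S. aureus, CA-MHB for E. coli and E. faecium, CA-MHB plus 3% laked horse blood for S. pyogenes (5% CO2).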

[4] = system: S. aureus MRSA (ATCC 43300); assay: MIC susceptibility testing; type: cell-based; conditions: Staphylococcus aureus; read-out: S. aureus MRSA (ATCC 43300) MIC
Excerpt: (§2) Media and culture conditions. Mueller Hinton broth (MHB), cation adjusted Mueller Hinton broth (CA-MHB), and Brain Heart Infusion broth (BHI) were purchased from Becton Dickinson (Franklin Lakes, N.J.). Tryptic soy agar (TSA) plates, TSA with 5% sheep blood plates, and CA-MHB with 3% laked horse blood were purchased from Remel (San Diego, Calif.). MHB was used to assay all Staphylococcus aureus strains. CA-MHB was used for Staphylococcus epidermidis, Enterococcus faecalis, Enterococcus faecium, Escherichia coli, and Pseudomonas aeruginosa. CA-MHB supplemented with 3% laked horse blood was used for Streptococcus pneumoniae and Streptococcus pyogenes. Staphylococcus, Enterococcus, Escherichia, and Pseudomonas strains were cultured at 37° C. with ambient air. Streptococcus strains were cultured in 37° C. with 5% CO2. Separate conditions for radiolabeled precursor uptake assays are described below.
(§3) Susceptibility testing: Minimum inhibitory concentration (MIC) determinations were performed in triplicate in 96-well round bottom microtiter plates (Corning, Corning N.Y.) as described by the Clinical and Laboratory Standards Institute (CLSI). Serial two-fold dilutions of compounds were added to plates in 50 μL volumes. An additional 50 μL of media containing bacterial cells (1×10^6 CFUs/mL) was then added to each well. Maximum DMSO concentrations were 0.5%. Plates were incubated at 37° C. for at least 18 h before reading the susceptibility result by optical absorbance (OD600) using a BioTek ELx800. The lowest concentration causing ≥90% growth inhibition compared to the untreated control was recorded as the MIC (and also corresponded to the visual MIC). MICs were measured at least twice and the higher value (if different) was recorded herein.

[5] = system: E. faecalis (ATCC 29212); assay: MIC susceptibility testing; type: cell-based; conditions: Enterococcus faecalis, ATCC29212; read-out: E. faecalis (ATCC 29212) MIC
Excerpt: as §2, §3

[6] = system: E. faecium (ATCC 19434); assay: MIC susceptibility testing; type: cell-based; conditions: Enterococcus faecium, ATCC19434; read-out: E. faecium (ATCC 19434) MIC
Excerpt: as §2, §3

[7] = molecular target: recombinant S. aureus MetRS enzyme (Staphylococcus aureus, UniProt A0A0H2XID2); assay: Inhibition of SaMetRS, ATP depletion assay; type: biochemical
Sequence of recombinant S. aureus MetRS enzyme (A0A0H2XID2 2-657): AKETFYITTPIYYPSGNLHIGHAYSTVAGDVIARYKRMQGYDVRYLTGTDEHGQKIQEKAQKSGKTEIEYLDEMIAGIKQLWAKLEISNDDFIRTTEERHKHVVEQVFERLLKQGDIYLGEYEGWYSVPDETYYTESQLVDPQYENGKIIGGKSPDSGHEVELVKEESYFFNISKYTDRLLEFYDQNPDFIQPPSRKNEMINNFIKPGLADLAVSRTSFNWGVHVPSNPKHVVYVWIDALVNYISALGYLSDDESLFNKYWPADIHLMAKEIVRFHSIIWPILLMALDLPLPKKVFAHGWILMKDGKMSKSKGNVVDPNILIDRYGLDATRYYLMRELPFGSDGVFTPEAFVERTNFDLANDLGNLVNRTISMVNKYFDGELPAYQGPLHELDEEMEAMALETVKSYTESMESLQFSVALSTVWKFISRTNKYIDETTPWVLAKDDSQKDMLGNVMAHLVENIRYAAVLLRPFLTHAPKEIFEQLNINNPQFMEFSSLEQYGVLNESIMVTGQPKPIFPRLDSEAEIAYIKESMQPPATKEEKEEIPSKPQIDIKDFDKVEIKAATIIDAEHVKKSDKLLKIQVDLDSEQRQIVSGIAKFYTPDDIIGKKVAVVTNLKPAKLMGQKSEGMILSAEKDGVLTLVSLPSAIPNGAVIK
How it was run: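 N-terminal 6-His S. aureus MetRS (25 nM) was pre-incubated 15 min at room temperature with compound, 400 μg/mL E. coli tRNA and pyrophosphatase in HEPES-KOH pH 7.9, 2% DMSO. Reaction started with 150 nM ATP plus 20 μM L-methionine, ran 120 min; remaining ATP read by Kinase-Glo luminescence, IC50 by sigmoidal nonlinear regression.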

[8] = system: G. lamblia (ATCC GL50803); assay: G. lamblia growth inhibition; type: cell-based; conditions: Giardia duodenalis, read-out: (K) G. lamblia (ATCC GL50803) EC50
[9] = system: S. aureus MRSA (ATCC 33591); assay: MIC susceptibility testing; type: cell-based, Staphylococcus aureus; conditions: MRSA ATCC33591; for MIC: Staphylococcus aureus, read-out: (G) MRSA (ATCC33591) MIC
How it was run: as §1

[10] = molecular target: MetRS (C. parvum) (Cryptosporidium parvum, UniProt Q5CVN0); assay: MetRS (C. parvum) enzyme inhibition; type: biochemical; conditions: read-out: (C) MetRS (C. parvum) IC50
Sequence of MetRS (C. parvum) (Q5CVN0 entry or part of it): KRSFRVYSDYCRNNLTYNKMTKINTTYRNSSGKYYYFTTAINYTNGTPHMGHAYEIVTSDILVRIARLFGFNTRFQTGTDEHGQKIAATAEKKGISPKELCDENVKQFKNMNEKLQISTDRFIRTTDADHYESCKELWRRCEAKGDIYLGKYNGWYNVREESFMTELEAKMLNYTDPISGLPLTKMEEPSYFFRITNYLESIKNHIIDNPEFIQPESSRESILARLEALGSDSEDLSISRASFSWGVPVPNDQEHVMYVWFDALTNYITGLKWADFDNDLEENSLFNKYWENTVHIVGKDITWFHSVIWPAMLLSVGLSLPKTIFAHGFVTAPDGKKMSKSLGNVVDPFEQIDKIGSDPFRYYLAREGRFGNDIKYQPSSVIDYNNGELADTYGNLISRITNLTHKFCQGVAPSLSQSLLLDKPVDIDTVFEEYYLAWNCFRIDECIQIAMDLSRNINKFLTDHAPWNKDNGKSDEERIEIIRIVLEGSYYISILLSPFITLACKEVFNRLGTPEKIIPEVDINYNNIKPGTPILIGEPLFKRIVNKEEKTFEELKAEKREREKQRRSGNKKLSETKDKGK

[11] = system: T. cruzi; assay: T. cruzi growth inhibition; type: cell-based, Trypanosoma cruzi; conditions: read-out: (E) T. cruzi EC50
[12] = molecular target: T1, MetRS (T. brucei) (Trypanosoma brucei brucei, UniProt Q38C91); assay: MetRS (T. brucei) enzyme inhibition; type: biochemical
T1 sequence (Q38C91 1-773): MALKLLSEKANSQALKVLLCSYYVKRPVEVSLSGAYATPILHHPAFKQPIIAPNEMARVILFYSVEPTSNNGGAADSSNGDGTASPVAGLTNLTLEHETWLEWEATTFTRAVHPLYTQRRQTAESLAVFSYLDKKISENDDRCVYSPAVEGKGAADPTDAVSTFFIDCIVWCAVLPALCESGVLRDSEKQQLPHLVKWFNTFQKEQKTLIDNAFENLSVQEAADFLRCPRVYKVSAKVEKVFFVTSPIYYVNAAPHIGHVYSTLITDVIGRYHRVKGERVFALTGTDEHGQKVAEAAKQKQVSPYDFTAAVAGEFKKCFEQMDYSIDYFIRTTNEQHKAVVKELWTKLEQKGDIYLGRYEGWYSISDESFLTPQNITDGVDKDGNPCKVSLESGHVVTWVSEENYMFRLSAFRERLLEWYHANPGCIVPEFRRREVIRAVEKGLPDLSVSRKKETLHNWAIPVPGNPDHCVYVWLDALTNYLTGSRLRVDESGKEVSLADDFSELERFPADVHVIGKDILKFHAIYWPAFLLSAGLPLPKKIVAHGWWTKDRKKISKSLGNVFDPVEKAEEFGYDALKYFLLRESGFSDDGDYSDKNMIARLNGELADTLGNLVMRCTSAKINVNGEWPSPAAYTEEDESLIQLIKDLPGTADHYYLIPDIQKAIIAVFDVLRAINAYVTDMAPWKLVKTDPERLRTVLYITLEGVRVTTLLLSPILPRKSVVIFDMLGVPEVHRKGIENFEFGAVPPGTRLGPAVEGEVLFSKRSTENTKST

[13] = system: C. parvum; assay: C. parvum growth inhibition; type: cell-based, Cryptosporidium parvum; conditions: read-out: (J) C. parvum EC50
[14] = system: T. brucei; assay: T. brucei growth inhibition; type: cell-based, Trypanosoma brucei; conditions: read-out: (D) T. brucei EC50
[15] = system: S. aureus (ATCC 29213); type: cell-based, Staphylococcus aureus; conditions: 8× the MIC
Method: Resistance frequency rates determination: The spontaneous resistance frequency rates to test compounds was determined according to published methods. Agar selection plates were made by adding compound from DMSO stocks into molten Mueller Hinton agar in a 55° C. water bath. […] The final DMSO concentration was <0.1% per plate. Plates were dried in a sterile hood for 30 minutes prior to overnight storage at 4° C., and pre-warmed in the 37° C. incubator for 1 hour prior to assay.
A fresh overnight culture was diluted 1:50 in MHB and grown at 37° C. with shaking (150 rpm) until reaching an OD600 of 0.4 correlating to ˜2×10^9 CFUs/mL. Approximately 3 mL for a total of 6*10^9 CFUs were distributed onto 4 plates for each compound. Plates were incubated at 37° C. for 72 h prior to counting of colonies. The starting inoculum was also serially diluted and plated to quantify initial bacterial load. The resistance frequency was determined as the number of compound-resistant colonies divided by the total colonies plated.
Resistance frequency rates: The propensity for S. aureus to develop resistance to MetRS inhibitors was also studied (Table 6).

[16] = system: S. aureus; assay: Serum shift assays (MIC with and without 50% human serum); type: cell-based, Staphylococcus aureus; conditions: Staphylococcus aureus
Method: Serum shift assays: To assess the role of protein binding on compound susceptibility, MIC determinations were performed in triplicate in the presence and absence of 50% human serum. Serial threefold dilutions of 2× compound were generated in MHB and aliquoted onto 96 well plates with a DMSO limit of 0.5%. Bacteria were adjusted to 1*10^8 CFUs/mL in MHB, then further diluted 1:100 in MHB and 100% heat deactivated filter sterilized pooled human serum. Fifty microliters were added to each well of the corresponding plates, and the plates were incubated at 37° C. for ˜20 h. The lowest concentration causing ≥90% growth inhibition was recorded as the MIC.

[17] = system: S. aureus (ATCC 29213); assay: MBC determinations (with MIC); type: cell-based; conditions: Staphylococcus aureus, ATCC29213, S. aureus (ATCC 29213)
Method: Maximum DMSO concentrations were 0.5%. […] Each experiment's inoculum was serially diluted and plated on TSA to count competent cells. Cultures were incubated at 37° C. for at least 20 h and plated on TSA for CFU determination.
MIC/MBC: Measurements of minimum bactericidal concentrations (MBCs) were done with the S. aureus strain ATCC 29213 (Table 5).

[18] = E. faecium ATCC 51559, read-out: (I) E. faecium (ATCC 51559) MIC
[19] = read-out: (B) MetRS (S. aureus) IC50
[20] = S. aureus ATCC 29213, read-out: (F) S. aureus (ATCC 29213) MIC

| Structure (SMILES) | EC50 [8] | MIC [9] | MIC [3, 18] | IC50 [10] | EC50 ([11]; Trypanosoma cruzi) | IC50 [7, 19] | IC50 [12] | EC50 ([13]; Cryptosporidium parvum) | EC50 [13] | MIC [2, 20] | EC50 ([14]; Trypanosoma brucei) | also measured |
| --- | --- | --- | --- | --- | --- | --- | --- | --- | --- | --- | --- | --- |
| Oc1cc(NCCCNCc2cc(Cl)cc(Cl)c2)nc2ccccc12 [Compound 1312, 2-((3-((3,5-dichlorobenzyl)amino)propyl)amino)quinolin-4(1H)-one] |  |  |  |  |  |  |  |  |  |  |  | CC50 at 48 h ([1]; CRL-8155 cells (human lymphoblasts), read-out: Mamm. cells (CRL8155) CC50): > 7.5 µg/mL; CC50 at 48 h ([1]; HepG2 cells (human hepatocellular carcinoma), read-out: Mamm. cells (HepG2) CC50): > 7.5 µg/mL; MIC ([2]; 18 h, read-out: S. aureus MSSA (ATCC 29213) MIC): 2.5 µg/mL (≈ 6.64 µM); MIC ([3]; read-out: E. faecium VRE (ATCC 51559) MIC): 0.156 µg/mL (≈ 0.415 µM); MIC [4]: 5 µg/mL (≈ 13.3 µM); MIC [5]: 0.313 µg/mL (≈ 0.832 µM); MIC [6]: 0.156 µg/mL (≈ 0.415 µM); IC50 ([7]; recombinant enzyme, lower limit of detection 0.025 μM, read-out: MetRS S. aureus (enzyme) IC50): < 25 nM |
| CCn1c(Cc2ccc(Cl)cc2Cl)cn(Cc2nc3ccc(Cl)nc3[nH]2)c1=O [Compound 2067, 1-({5-chloro-1H-imidazo[4,5-b]pyridin-2-yl}methyl)-4-[(2,4-dichlorophenyl)methyl]-3-ethyl-2,3-dihydro-1H-imidazol-2-one] | 670 nM | 1.35 µg/mL (≈ 3.09 µM) | > 2 µg/mL | < 40 nM | 16.7 nM | < 25 nM | < 40 nM |  |  |  |  | (G) MRSA (ATCC33591) MIC [9]: 1.16 µg/mL; EC50 [11]: 32.3 nM |
| COc1ccc(-c2cccc3nc(Cc4nc5nc(Cl)ccc5[nH]4)cn23)c(Cl)c1 [Compound 2119, 2-({5-chloro-1H-imidazo[4,5-b]pyridin-2-yl}methyl)-5-(2-chloro-4-methoxyphenyl)imidazo[1,2-a]pyridine] | 60 nM | 1.04 µg/mL (≈ 2.45 µM) | 0.727 µg/mL (≈ 1.71 µM) | < 40 nM | 196 nM | < 25 nM | < 40 nM | 480 nM | 633 nM | 0.285 µg/mL (≈ 0.672 µM) | 17.9 nM | EC50 [14]: 29.3 nM |
| COc1ccc(-c2cccc3nc(Cc4nc5nc(F)ccc5[nH]4)cn23)c(Cl)c1 [Compound 2122, 5-(2-chloro-4-methoxyphenyl)-2-({5-fluoro-1H-imidazo[4,5-b]pyridin-2-yl}methyl)imidazo[1,2-a]pyridine] | 220 nM | 0.909 µg/mL (≈ 2.23 µM) | 0.263 µg/mL (≈ 0.645 µM) | < 40 nM | 703 nM | < 25 nM | < 40 nM | 976 nM | 597 nM | 0.419 µg/mL (≈ 1.03 µM) | 58.5 nM |  |
| CO[C@@H]1[C@@H](OC(N)=O)[C@@H](O)[C@H](Oc2ccc3c(O)c(NC(=O)c4ccc(O)c(CC=C(C)C)c4)c(=O)oc3c2C)OC1(C)C [NOV, novobiocin] |  |  |  |  |  |  |  |  |  |  |  | Resistance frequency (Expt. 2) ([15]; 72 h): 1.58 × 10^−8; Resistance frequency (average or greater #) ([15]; two independent experiments): 1.58 × 10^−8; MIC ([16]; 50% human serum, read-out: Avg MIC ± SEM (+50% serum)): 12.9 ± 1.97 µg/mL; MIC ([16]; no serum, read-out: Avg MIC ± SEM (no serum)): 0.081 ± 0.02 µg/mL; MIC ([17]; MBC experiment (Table 5), read-out: MIC): 0.156 µg/mL (≈ 0.255 µM); MBC ([17]; concentration killing 99.9% of inoculum, read-out: MBC): 5 µg/mL (≈ 8.16 µM) |
